Measured values published in ChEMBL document CHEMBL4000202, “Identification of a diverse synthetic abietane diterpenoid library for anticancer activity” (Bioorg Med Chem Lett, 2017).
Calls of active or inactive are those of the source. The rule behind the calls is not given here.

Columns and labels:
A549 [1] = test: Cytotoxic activity against human A549 cells assessed as reduction in cell viability after 72 hrs by SRB assay; assay type: functional, cell-based; details: A549, 72 h
PC-3 = test: Cytotoxic activity against human PC3 cells assessed as reduction in cell viability after 72 hrs by SRB assay; assay type: functional, cell-based; details: PC-3, 72 h
SK-OV-3 = test: Cytotoxic activity against human SKOV3 cells assessed as reduction in cell viability after 72 hrs by SRB assay; assay type: functional, cell-based; details: SK-OV-3, 72 h
A549 [2] = test: Induction of apoptosis in human A549 cells assessed as late apoptotic cells at 5 uM after 36 hrs by Annexin V/propidium iodide based flow cytometric analysis (reference value: 2.3%); assay type: functional
A549 [3] = test: Potency index, ratio of 5-FU IC50 to compound IC50 for human A549 cells; assay type: functional
A549 [4] = test: Induction of apoptosis in human A549 cells assessed as early apoptotic cells at 5 uM after 36 hrs by Annexin V/propidium iodide based flow cytometric analysis (reference value: 0.5%); assay type: functional
A549 [5] = test: Induction of apoptosis in human A549 cells assessed as increase in cleaved PARP level after 36 hrs by Western blot method; assay type: functional, cell-based
A549 [6] = test: Induction of apoptosis in human A549 cells assessed as increase in cytochrome c level after 36 hrs by Western blot method; assay type: functional, cell-based
A549 [7] = test: Induction of apoptosis in human A549 cells assessed as increase in cleaved caspase-3 level after 36 hrs by Western blot method; assay type: functional, cell-based
A549 [8] = test: Induction of apoptosis in human A549 cells assessed as increase in Bax level after 36 hrs by Western blot method; assay type: functional, cell-based
A549 [9] = test: Effect on tubulin in human A549 cells at 1 to 100 uM after 18 hrs; assay type: cell-based
L02 = test: Cytotoxic activity against human HL7702 cells; assay type: cell-based
MCF7 = test: Cytotoxic activity against human MCF7 cells assessed as reduction in cell viability; assay type: functional, cell-based
SK-BR-3 = test: Cytotoxic activity against human SKBR3 cells assessed as reduction in cell viability; assay type: functional, cell-based
LNCaP = test: Cytotoxic activity against human LNCAP cells assessed as reduction in cell viability; assay type: functional, cell-based
A549 [10] = test: Induction of apoptosis in human A549 cells assessed as ROS generation at 1 to 100 uM after 18 hrs; assay type: functional, cell-based
MDA-MB-231 = test: Cytotoxic activity against human MDA-MB-231 cells assessed as reduction in cell viability; assay type: functional, cell-based
HCT-116 = test: Cytotoxic activity against human HCT116 cells assessed as reduction in cell viability; assay type: functional, cell-based
A549 [11] = test: Induction of apoptosis in human A549 cells assessed as reduction in mitochondrial membrane potential at 5 uM after 24 hrs using JC-1 dye based spectrofluorometry; assay type: functional, cell-based
A549 [12] = test: Induction of apoptosis in human A549 cells assessed as decrease in PARP level after 36 hrs by Western blot method; assay type: functional, cell-based
A549 [13] = test: Induction of apoptosis in human A549 cells assessed as genomic DNA fragmentation at 5 uM after 24 hrs by FITC/DAPI staining based TUNEL assay; assay type: functional, cell-based
A549 [14] = test: Induction of apoptosis in human A549 cells assessed as decrease in Bcl-2 level after 36 hrs by Western blot method; assay type: functional, cell-based
A549 [15] = test: Induction of apoptosis in human A549 cells assessed as necrotic cells at 5 uM after 36 hrs by Annexin V/propidium iodide based flow cytometric analysis (reference value: 0.2%); assay type: functional
HFF = test: Cytotoxic activity against HFF cells assessed as reduction in cell viability; assay type: cell-based; details: Homo sapiens

C=C1[C@@H]2CC(=O)c3c(ccc(C(C)C)c3OC)[C@@]2(C)CC[C@@]1(O)CO
IC50 (A549 [1]): 25 µM | IC50 (PC-3): 27.2 µM | IC50 (SK-OV-3): 59.6 µM

COC(=O)[C@]1(C)CCC[C@]2(C)c3ccc(C(C)C)c(OC)c3[C@H](O)C[C@@H]12
IC50 (A549 [1]): 76.6 µM | IC50 (PC-3): 55.9 µM | IC50 (SK-OV-3): 72.2 µM

COC(=O)[C@]1(C)CCC[C@]2(C)c3ccc(C(C)C)c(OC)c3CC[C@@H]12
IC50 (A549 [1]): > 100 µM | IC50 (PC-3): 59.9 µM | IC50 (SK-OV-3): 65.2 µM

C=C1C(=C(SC)SC)CC[C@]2(COCOCC)c3ccc(C(C)C)c(OC)c3CC[C@@H]12
IC50 (A549 [1]): 99.8 µM | IC50 (PC-3): 19.4 µM | IC50 (SK-OV-3): 26 µM

COc1c(C(C)C)ccc2c1CC[C@@]1(O)C3=C(C(=O)OC3)[C@@H](O)C[C@]21C
IC50 (A549 [1]): > 100 µM | IC50 (PC-3): > 100 µM | IC50 (SK-OV-3): 92.2 µM

COc1c(C(C)C)ccc2c1CC[C@H]1C3=C(CC[C@]21CO)C(=O)OC3
IC50 (A549 [1]): > 100 µM | IC50 (PC-3): > 100 µM | IC50 (SK-OV-3): > 100 µM

COC(=O)[C@]1(C)CCC[C@]2(C)c3cc([N+](=O)[O-])c(C(C)C)cc3CC[C@@H]12
IC50 (A549 [1]): 89.4 µM | IC50 (PC-3): 81.9 µM | IC50 (SK-OV-3): 47.8 µM

COC(=O)[C@]1(C)CCC[C@@]2(C)[C@H]1CC=C1C=C(C(C)C)CC[C@@H]12 [METHYL ABIETATE]
IC50 (A549 [1]): 63.1 µM | IC50 (PC-3): 79.3 µM | IC50 (SK-OV-3): 81.3 µM

COc1cccc2c1CC[C@H]1[C@@H](CO)[C@H](O[Si](C)(C)C(C)(C)C)CC[C@]21C
IC50 (A549 [1]): > 100 µM | IC50 (PC-3): > 100 µM | IC50 (SK-OV-3): > 100 µM

COc1c(C(C)C)ccc2c1CC[C@H]1C3=C(CC[C@]21C)C(=O)OC3
IC50 (A549 [1]): 98.8 µM | IC50 (PC-3): 50.4 µM | IC50 (SK-OV-3): 49.8 µM

COC(=O)[C@]1(C)CCC[C@]2(C)c3ccc(C(C)C)cc3CC[C@@H]12 [METHYL DEHYDROABIETATE]
IC50 (A549 [1]): 41.2 µM | IC50 (PC-3): 37.7 µM | IC50 (SK-OV-3): 51.3 µM

C[C@]12CCC3=C(COC3=O)[C@@H]1CCc1ccccc12
IC50 (A549 [1]): > 100 µM | IC50 (PC-3): > 100 µM | IC50 (SK-OV-3): > 100 µM

C=C1C(CO)=CC[C@]2(C)c3ccc(C(C)C)c(OC)c3C(=O)C[C@@H]12
IC50 (A549 [1]): > 100 µM | IC50 (PC-3): > 100 µM | IC50 (SK-OV-3): > 100 µM

C=C1[C@H](O[Si](C)(C)C(C)(C)C)CC[C@]2(C)c3ccccc3CC[C@@H]12
IC50 (A549 [1]): 97.9 µM | IC50 (PC-3): > 100 µM | IC50 (SK-OV-3): 91.8 µM

COC(=O)[C@]1(C)CCC[C@]2(C)c3ccc(C(C)C)c(O)c3CC[C@@H]12
IC50 (A549 [1]): 56 µM | IC50 (PC-3): 22.3 µM | IC50 (SK-OV-3): 42.9 µM

CC(C)(C)C(=O)OC[C@H]1[C@H](O)CC[C@]2(C)c3ccccc3CC[C@@H]12
IC50 (A549 [1]): 64.5 µM | IC50 (PC-3): 49.2 µM | IC50 (SK-OV-3): 43.2 µM

COC(=O)[C@]1(C)CCC[C@@]2(C)[C@H]1CC=C1C(=O)[C@@](O)(C(C)C)CC[C@@H]12
IC50 (A549 [1]): 85.1 µM | IC50 (PC-3): > 100 µM | IC50 (SK-OV-3): 99.2 µM

CCOCC[C@]12CCC3=C(COC3=O)[C@@H]1CCc1c2ccc(C(C)C)c1OC
IC50 (A549 [1]): > 100 µM | IC50 (PC-3): > 100 µM | IC50 (SK-OV-3): > 100 µM

COc1ccc(COC[C@H]2[C@H](O)CC[C@]3(C)c4cccc(OC)c4CC[C@@H]23)cc1
IC50 (A549 [1]): 5.39 µM | IC50 (PC-3): 3.37 µM | IC50 (SK-OV-3): 6.19 µM

CC(C)c1ccc2c(c1)CC[C@H]1[C@](C)(C(=O)O)CCC[C@]21C [DEHYDROABIETIC ACID]
IC50 (A549 [1]): 74.3 µM | IC50 (PC-3): 51.3 µM | IC50 (SK-OV-3): 66 µM

C=C1C(=O)CC[C@]2(C)c3ccc(C(C)C)c(OC)c3CC[C@@H]12
IC50 (A549 [1]): 9.31 µM | IC50 (PC-3): 7.28 µM | IC50 (SK-OV-3): 7.49 µM

COc1c(C(C)C)ccc2c1CC[C@H]1[C@@H](O)CCC[C@]21CO[N+](=O)[O-]
IC50 (A549 [1]): > 100 µM | IC50 (PC-3): > 100 µM | IC50 (SK-OV-3): > 100 µM

C=CCOc1c(C(C)C)ccc2c1C(=O)C[C@H]1C3=C(CC[C@]21C)C(=O)OC3
IC50 (A549 [1]): > 100 µM | IC50 (PC-3): 98.3 µM | IC50 (SK-OV-3): 82.4 µM

CC(C)c1ccc2c(c1O)C(=O)C[C@H]1C3=C(CC[C@]21CO)C(=O)OC3
IC50 (A549 [1]): > 100 µM | IC50 (PC-3): 92.2 µM | IC50 (SK-OV-3): 95.4 µM

COC(=O)[C@]1(C)CCC[C@]2(C)c3ccc(C(C)C)c(N)c3CC[C@@H]12
IC50 (A549 [1]): 35.7 µM | IC50 (PC-3): 21.1 µM | IC50 (SK-OV-3): 37.8 µM

C=C1[C@H](O)CC[C@]2(C)c3ccc(C(C)C)c(OC)c3CC[C@@H]12
IC50 (A549 [1]): 99.6 µM | IC50 (PC-3): > 100 µM | IC50 (SK-OV-3): > 100 µM

COc1c(C(C)C)ccc2c1CC[C@H]1[C@@H](O)CCC[C@]21C
IC50 (A549 [1]): > 100 µM | IC50 (PC-3): 98.2 µM | IC50 (SK-OV-3): > 100 µM

O=c1[nH]cc(F)c(=O)[nH]1 [FLUOROURACIL]
IC50 (A549 [1]): 32.1 µM | IC50 (PC-3): 15.3 µM | IC50 (SK-OV-3): 23.1 µM

CC(C)[C@]12O[C@H]1[C@@H]1O[C@]13[C@]1(O[C@H]1C[C@H]1C4=C(CC[C@@]13C)C(=O)OC4)[C@@H]2O [TRIPTOLIDE]
IC50 (A549 [1]): 0.0175 µM | IC50 (PC-3): 0.0183 µM | IC50 (SK-OV-3): 0.0072 µM

COc1c(C(C)C)ccc2c1CC[C@@]1(O)C3=C(CC[C@]21C)C(=O)OC3
IC50 (A549 [1]): > 100 µM | IC50 (PC-3): > 100 µM | IC50 (SK-OV-3): > 100 µM

CC(C)C1=CC2=CC[C@@H]3[C@](C)(CCC[C@@]3(C)C(=O)O)[C@H]2CC1 [ABIETIC ACID]
IC50 (A549 [1]): > 100 µM | IC50 (PC-3): > 100 µM | IC50 (SK-OV-3): 90.4 µM

CCOCO[C@]12CCC[C@]3(CO1)c1ccc(C(C)C)c(OC)c1C(=O)C[C@@H]23
Activity (A549 [2]): 15.8% | IC50 (A549 [1]): 1.32 µM | Ratio IC50 (A549 [3]): 24 | Activity (A549 [4]): 1.3% | Activity (A549 [5]): Dose-dependent effect | IC50 (PC-3): 2.58 µM | Activity (A549 [6]): Dose-dependent effect | Activity (A549 [7]): Dose-dependent effect | Activity (A549 [8]): Dose-dependent effect | Activity (A549 [9]): inactive | IC50 (L02): 16.1 to 22.4 µM | IC50 (MCF7): 1.1 to 4.5 µM | IC50 (SK-BR-3): 1.1 to 4.5 µM | IC50 (LNCaP): 1.1 to 4.5 µM | IC50 (SK-OV-3): 1.57 µM | Activity (A549 [10]): inactive | IC50 (MDA-MB-231): 1.1 to 4.5 µM | IC50 (HCT-116): 1.1 to 4.5 µM | Activity (A549 [11]): Active | Activity (A549 [12]): Active | Activity (A549 [13]): Active | Activity (A549 [14]): Active | Activity (A549 [15]): 1.3% | IC50 (HFF): 16.1 to 22.4 µM

COc1cccc2c1CC[C@H]1[C@H]3COC(=O)C3=CC[C@]21C
IC50 (A549 [1]): 88.9 µM | IC50 (PC-3): > 100 µM | IC50 (SK-OV-3): > 100 µM
